# Assay results as given in patent US20250228824A1, “COMPOSITIONS AND METHODS FOR INHIBITION OF ITO AS TREATMENT FOR THE J WAVE SYNDROMES AND HYPOTHERMIA” (Lankenau Institute for Medical Research, priority 2021, published 2025).
# Assays:
# KV4.3 (Ito) = target: T1, KV4.3 (Ito) (Canis lupus familiaris, UniProt A0A8I3NA05); assay: Whole-cell patch clamp of Ito in dissociated canine ventricular epicardial myocytes; type: cell-based
# T1 sequence (A0A8I3NA05 1-655): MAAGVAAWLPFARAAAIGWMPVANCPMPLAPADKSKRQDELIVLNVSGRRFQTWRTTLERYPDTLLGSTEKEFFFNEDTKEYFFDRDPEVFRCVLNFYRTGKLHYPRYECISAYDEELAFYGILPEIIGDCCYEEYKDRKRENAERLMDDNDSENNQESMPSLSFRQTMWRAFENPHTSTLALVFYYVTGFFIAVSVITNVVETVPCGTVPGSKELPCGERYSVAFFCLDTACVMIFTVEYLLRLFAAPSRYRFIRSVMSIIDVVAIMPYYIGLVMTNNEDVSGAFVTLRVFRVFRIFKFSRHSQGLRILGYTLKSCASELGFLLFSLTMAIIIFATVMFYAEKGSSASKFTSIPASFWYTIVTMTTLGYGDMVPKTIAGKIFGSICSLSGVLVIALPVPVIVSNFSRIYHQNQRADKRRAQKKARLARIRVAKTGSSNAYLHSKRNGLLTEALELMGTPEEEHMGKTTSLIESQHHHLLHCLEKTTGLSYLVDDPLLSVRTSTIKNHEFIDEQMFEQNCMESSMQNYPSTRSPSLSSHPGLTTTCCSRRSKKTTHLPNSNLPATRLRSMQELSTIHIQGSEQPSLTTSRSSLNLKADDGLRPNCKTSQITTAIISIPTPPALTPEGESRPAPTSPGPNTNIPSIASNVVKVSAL
# Procedure: Single myocytes were isolated from coronary-perfused canine right or left ventricular wedge preparations via enzymatic dissociation. Briefly, the wedge preparations were coronary perfused with nominally Ca^+2-free Tyrode's solution for a period of 15 min. They were then subjected to enzymatic digestion in nominally Ca^2+-free solution supplemented with 0.6 mg/ml collagenase (type II; Worthington) and 0.075 mg/ml protease (type XIV; Sigma) for 25-35 min. The wedge preparation was then perfused for 15 min with a taurine buffer solution containing (in mM): 108 NaCl, 10 HEPES, 11 D-glucose, 4 KCl, 1.2 MgSO4, 1.2 NaH2PO4, 50 taurine and 0.025 CaCl2. pH was adjusted to 7.4 using NaOH. After perfusion, thin slices of tissue were cut from the epicardial surface to obtain single epicardial cells as previously described.^6
# Ito and APs were measured in isolated RV or LV myocytes. APs were measured in the current-clamp mode in the whole-cell configuration. APs were initiated using intracellular current injection and recorded continuously by means of Clampex software (Axon Instruments/Molecular Devices) at a sampling frequency of […]. Ito was measured using the Axopatch 200B-2 amplifier in V-Clamp mode.
# Ito was recorded in isolated ventricular epicardial cells at 37° C. using whole-cell patch clamp techniques. Ito was elicited using a series of 350 ms voltage steps between −50 mV and +40 mV from a holding potential of −90 mV. A 15 ms prepulse to −20 mV was used to discharge the sodium current. Interpulse interval was 50 ms. The amplitude of Ito was determined by subtracting […] at the end of the pulse. The total charge carried by Ito was determined by calculating the area under the Ito current waveform. The extracellular solution contained (in mM): 140 NaCl, 4 KCl, 1.8 CaCl2, 1.2 MgCl2, 10 HEPES, and 10 glucose, pH 7.4 (adjusted with NaOH). The intracellular solution contained (in mM): 120 KCl, 1.5 MgCl2, 10 HEPES, 0.5 EGTA, 0.01 CaCl2, 5 MgATP, pH 7.2 (adjusted with NaOH). Following baseline measurements, recordings was repeated during exposure to AR-787.
# KV11.1 (hERG-IKr) = target: T2, KV11.1 (hERG-IKr) (Homo sapiens, UniProt Q12809); assay: Whole-cell patch clamp of IKr in HEK cells stably expressing hERG; type: cell-based; conditions: 50 μM
# T2 construct: stably expressing hERG channels (NM_000238); expressed in transfected cells
# Procedure: Human Embryonic Kidney (HEK) cells stably expressing hERG channels (NM_000238) were used to evaluate the effect of AR-787 on IKr. The HEK cells were cultured in vented flasks using standard methods. The culture media consisted of MEM α-modified, 10% FBS, 1% L-glutamine, 1% pen-strep and 0.4% G418 (Geneticin). Cells were passaged at 50% confluence.
# For electrophysiological study, cells were released from culture with trypsin, rinsed with Ca^2+-free external solution and maintained on ice until used (up to 4 hr). An aliquot of cells was place in a chamber on an inverted microscope (Nikon Diaphot) and perfused with external solution at a rate of 1 ml/min at room temperature. The external solution contained in (mM): 140 NaCl, 5 KCl, 2 CaCl2, 1 MgCl2, 10 HEPES and 10 glucose at pH 7.4 (adjusted with NaOH). Membrane currents recorded with an Axopatch 200B amplifier controlled by Clampex software were digitized at a sampling rate of 10 kHz and filtered at 2 kHz. Micropipettes were fabricated from borosilicate glass and generally had resistances of 1.8-2.4 MΩ when filled with internal solution consisting of (mM): 140 KCl, 1 MgCl2, 5 Na2ATP, 10 HEPES and 10 EGTA (pH 7.3 adjusted with KOH; 300 mOsm). Pipette offset and stray capacitance were compensated with the pipette in the bath solution before seal formation. After achieving cell access, whole-cell capacitance and series resistance were compensated optimally. Series resistance prediction and correction were usually adjusted to 85% or higher leaving an uncompensated series resistance of less than 1 MΩ and voltage errors estimated to be less than 5 mV. Voltage protocols and currents were recorded on a computer for offline analysis using Clampfit and GraphPad software.
# IKr was measured using a two-step protocol. Voltage steps of 4 sec duration were applied at 20 sec intervals from a holding potential of −80 mV to −60 to +40 mV in 10 mV steps, followed by a 4 sec step to −50 mV to record the tail currents. […] The step protocol consisted of a voltage step from a holding potential of −80 mV to a test potential of +10 mV for 4 sec then to −50 mV for 4 second. It was repeated at 20 sec intervals. The step protocol was maintained until the current response achieved a stable level (5-7 min). The I-V protocol was then repeated.
# For analysis, the following were determined: 1) currents averaged over the last 100 ms of the first voltage clamp step (−60 to +40 mV) and 2) peak tail current during the second voltage clamp step (at −50 mV). These were divided by cell capacitance to normalize for cell size (pA/pF). The time course of tail current […] was fit with a single exponential function using Clampfit. The voltage dependence of activation was determined from tail currents by dividing current value at each voltage by the maximum value for each I-V protocol. Values of current were averaged among cells and expressed as a mean ±SEM.
# T2 sequence (Q12809 whole entry): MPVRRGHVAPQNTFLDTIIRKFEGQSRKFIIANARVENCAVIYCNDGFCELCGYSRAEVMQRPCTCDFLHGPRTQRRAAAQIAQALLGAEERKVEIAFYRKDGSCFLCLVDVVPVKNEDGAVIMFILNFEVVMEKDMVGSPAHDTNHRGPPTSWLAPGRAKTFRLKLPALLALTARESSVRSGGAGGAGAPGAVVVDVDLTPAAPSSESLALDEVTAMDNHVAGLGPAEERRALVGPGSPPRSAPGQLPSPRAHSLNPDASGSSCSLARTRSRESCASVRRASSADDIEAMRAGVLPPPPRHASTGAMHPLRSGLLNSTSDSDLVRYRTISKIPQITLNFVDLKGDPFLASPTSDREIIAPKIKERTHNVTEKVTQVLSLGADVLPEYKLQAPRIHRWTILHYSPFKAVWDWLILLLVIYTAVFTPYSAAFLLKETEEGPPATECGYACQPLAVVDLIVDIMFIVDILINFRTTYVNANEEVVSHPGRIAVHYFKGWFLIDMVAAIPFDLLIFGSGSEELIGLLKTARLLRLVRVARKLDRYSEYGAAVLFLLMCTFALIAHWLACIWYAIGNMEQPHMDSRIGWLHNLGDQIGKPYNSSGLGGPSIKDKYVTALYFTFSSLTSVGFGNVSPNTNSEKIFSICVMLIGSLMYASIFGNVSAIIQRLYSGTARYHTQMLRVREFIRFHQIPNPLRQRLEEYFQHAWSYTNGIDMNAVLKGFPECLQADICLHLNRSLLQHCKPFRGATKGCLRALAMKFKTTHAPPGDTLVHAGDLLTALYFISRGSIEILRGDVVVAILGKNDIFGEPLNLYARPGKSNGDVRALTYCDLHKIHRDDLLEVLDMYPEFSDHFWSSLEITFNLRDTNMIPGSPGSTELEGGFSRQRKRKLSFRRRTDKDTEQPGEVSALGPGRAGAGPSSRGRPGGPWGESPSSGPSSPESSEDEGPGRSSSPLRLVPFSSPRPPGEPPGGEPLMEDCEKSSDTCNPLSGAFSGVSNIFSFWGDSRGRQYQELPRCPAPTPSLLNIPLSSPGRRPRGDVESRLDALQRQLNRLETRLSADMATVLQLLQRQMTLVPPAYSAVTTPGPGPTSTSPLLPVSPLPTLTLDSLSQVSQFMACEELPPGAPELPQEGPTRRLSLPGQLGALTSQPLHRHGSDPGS
structure (smiles),measurement,setting,value
"Cc1nc(-n2cccc2)sc1C(=O)N=c1[nH]c2ccccc2[nH]1 [AR-787, N-(1H-benzimidazol-2-yl)-4-methyl-2-pyrrol-1-yl-thiazole-5-carboxamide]",inhibition at 1 µM,"KV4.3 (Ito); 1 μM, at +20 mV, 37° C., read-out: reduction of Ito density",34%
same,inhibition at 10 µM,"KV4.3 (Ito); 10 μM, at +20 mV, 37° C., read-out: reduction of Ito density",68%
same,inhibition at 50 µM,"KV4.3 (Ito); 50 μM, at +20 mV, 37° C., read-out: reduction of Ito density",85.2%
same,IC50,"KV4.3 (Ito); estimated, read-out: IC50 for Ito inhibition",~8 µM
same,amplitude of the developing IKr,KV11.1 (hERG-IKr),enhanced between −60 to −20 mV and reduced above 0 mV
same,rates of inactivation of IKr tail currents,KV11.1 (hERG-IKr),significantly slowed at positive voltages
same,reduction in IKr peak tail current,KV11.1 (hERG-IKr),50%
same,shift in the voltage dependence of both developing and tail currents (IKr),KV11.1 (hERG-IKr),−20 mV
same,shift of voltage-dependence of activation (IKr),KV11.1 (hERG-IKr),−25 mV
